In the assay the target is CatB (Homo sapiens, UniProt P07858). The experiment in a line: SDS-PAGE of adduct formation with CatB. In kind it is biochemical. To be noted: co-incubation with conjugates and CatB, SDS-PAGE autoradiography.

Structures are written as SMILES.

Take `CCCNC(=O)[C@H]1O[C@@H]1C(=O)N[C@H](C(=O)N1CCC[C@H]1C(=O)O)[C@@H](C)CC` [CA-074]: the “Effect of co-incubation on CatB adducts of the conjugates” value is “eliminated observable CatB adducts”.
